According to patent US8778889B2, “Antimicrobial decapeptide oral hygiene treatment” (The United States of America as represented by the …, priority 2003, dated 2014):
Ends that are not written are not given here.

What was measured:
A. baumannii ATCC #19606 = assay type: cell-based, Acinetobacter baumannii
Description: (§1) As shown in the table below, many drug-resistant pathogens including multidrug-resistant Acinetobacter baumannii (clinical isolates) were susceptible to the bactericidal activity of the newly developed antimicrobial peptides. […] This is shown by their lower MIC and MBC against a number of antibiotic-resistant bacteria including methicillin-resistant Staphylococcus aureus, vancomycin-resistant Enterococci, and multidrug-resistant Acinetobacter baumannii. Many of these resistant strains are involved in nosocomial infections, which affect the immunocompromised and the elderly individuals with weakened defenses. The tests were done in a broth microdilution assay as described in our earlier publication (Concannon et al., 2003).

A. baumannii WRAMC #11 = assay type: cell-based, Acinetobacter baumannii
Description: as §1

A. baumannii WRAMC #13 = assay type: cell-based, Acinetobacter baumannii
Description: as §1

A. baumannii WRAMC #14 = assay type: cell-based, Acinetobacter baumannii
Description: as §1

A. baumannii WRAMC #15 = assay type: cell-based, Acinetobacter baumannii
Description: as §1

A. baumannii WRAMC #16 = assay type: cell-based, Acinetobacter baumannii
Description: as §1

A. baumannii WRAMC #17 = assay type: cell-based, Acinetobacter baumannii
Description: as §1

A. baumannii WRAMC #18 = assay type: cell-based, Acinetobacter baumannii
Description: as §1

A. baumannii WRAMC #19 = assay type: cell-based, Acinetobacter baumannii
Description: as §1

A. baumannii WRAMC #2 = assay type: cell-based, Acinetobacter baumannii
Description: as §1

A. baumannii WRAMC #4 = assay type: cell-based, Acinetobacter baumannii
Description: as §1

A. baumannii WRAMC #5 = assay type: cell-based, Acinetobacter baumannii
Description: as §1

A. baumannii WRAMC #8 = assay type: cell-based, Acinetobacter baumannii
Description: as §1

VRE ATCC #51299 = assay type: cell-based, Enterococci
Description: as §1

VRE VVRAMC #7 = assay type: cell-based, Enterococci
Description: as §1

VRE WRAMC #3 = assay type: cell-based, Enterococci
Description: as §1

VRE WRAMC #6 = assay type: cell-based, Enterococci
Description: as §1

[1] = Interaction (adsorption) with hydroxyapatite discs in artificial saliva; assay type: physicochemical; conditions: KSL 0.5 mg/ml, 8 untreated HA discs, 37° C.
Description: Affinity of KSL to tooth-like materials was assessed by allowing the KSL to interact with HA discs (Size: 0.38″ diameter×0.06-0.08″ thick) in artificial saliva at 37° C. To simulate the tooth surface, the HA discs were pretreated in filtered human saliva for 2 hours (4 HA discs/4 mL of human saliva). Whole human saliva was collected from three healthy male donors in the morning prior to breakfast. After collection, the saliva was immediately centrifuged at 12,000 rpm for 20 min and the supernatant was filter through a 0.45 μm membrane filter. The HA discs, after conditioning with human saliva, were rinsed with artificial saliva and added to 4 ml of KSL solutions (0.5 mg/ml in artificial saliva) at 37° C. As a control, untreated HA discs were directly added to KSL solutions at 37° C. The sample vials were mounted on a rotary wheel with vertical rotation at a speed of 18 cycles/min. Samples were removed at predetermined times, centrifuged and the supernatants were analyzed by RP-HPLC.

[2] = tested on: oral biofilms formed by salivary bacteria on saliva-conditioned Ge surfaces; assay: Dual flow cell oral biofilm development (DIC microscopy); assay type: cell-based, human salivary bacteria
Description: The dual flow cell system used in this study was modified from the chemostat flow cells of Herles et al. (Herles et al., 1994) and constructed according to our design and specifications by BioSurface Technologies (Bozeman, Mont.) (FIG. 1). The flow cell consisted of two compartments, each containing a polycarbonate flow chamber with three recesses to hold the Ge disks (10 mm in diameter and 1.8 mm in thickness) upon which biofilms were formed. Ge disks provided reflective surfaces that allowed the visualization of unstained biofilms using differential interference contrast (DIC) microscopy.
To form biofilms, Ge disks (Mindrum, Rancho Cucamonga, Calif.) in the dual flow cell were conditioned for one hour with sterile 50% human whole saliva. Isolated salivary bacteria, adjusted to approximately 1.0×10^7 cells/ml in 50% saliva (total, 1.5 ml), were injected into the flow chambers. After two hours of initial adherence of bacteria onto disk surfaces, the flow of culture medium (20% Todd-Hewitt broth) was started at a rate of 0.2 ml/min (Foster et al., 2004). The flow rate employed generated a shear rate of approximately 9.65 s^−1 on the substrate surface, and is compatible with the fluid flow in the oral cavity (Bakker et al., 2003).
To evaluate the effects of KSL in controlling the development and maturation of oral biofilms, surface adhered cells (after initial colonization) were perfused continuously with KSL-free or KSL-containing media (KSL at 10 or 50 μg/ml). Alternatively, biofilms at different stages of maturation (i.e., 4, or 6 h after inoculation) were pulse-treated using an injection pump at 0.2 ml/min with 50 μg/ml KSL in 20% THB or the control medium for 30 min at 2 hr intervals. Direct comparison of the effects of antimicrobials on the growth of biofilms between treated versus untreated was made in real-time by DIC microscopy.

KKVVFKVKFK-NH2 [KSL, Lys-Lys-Val-Val-Phe-Lys-Val-Lys-Phe-Lys-NH2]
MBC (A. baumannii ATCC #19606): 200 mg/L | MIC (A. baumannii ATCC #19606): 100 mg/L | MBC (A. baumannii WRAMC #11): 200 mg/L | MIC (A. baumannii WRAMC #11): 100 mg/L | MBC (A. baumannii WRAMC #13): 200 mg/L | MIC (A. baumannii WRAMC #13): 50 mg/L | MBC (A. baumannii WRAMC #14): 100 mg/L | MBC (A. baumannii WRAMC #15): >200 mg/L | MIC (A. baumannii WRAMC #15): 100 mg/L | MBC (A. baumannii WRAMC #16): 25 mg/L | MBC (A. baumannii WRAMC #17): 100 mg/L | MBC (A. baumannii WRAMC #18): 200 mg/L | MIC (A. baumannii WRAMC #18): 50 mg/L | MBC (A. baumannii WRAMC #19): 50 mg/L | MBC (A. baumannii WRAMC #2): 100 mg/L | MBC (A. baumannii WRAMC #4): 25 mg/L | MIC (A. baumannii WRAMC #4): 12.5 mg/L | MBC (A. baumannii WRAMC #5): 50 mg/L | MBC (A. baumannii WRAMC #8): 100 mg/L | MBC (VRE ATCC #51299): >200 mg/L | MIC (VRE ATCC #51299): >200 mg/L | MBC (VRE VVRAMC #7): 100 mg/L | MBC (VRE WRAMC #3): >200 mg/L | MIC (VRE WRAMC #3): >200 mg/L | MBC (VRE WRAMC #6): 100 mg/L | KSL adsorbed to HA discs [1]: approximately 20% | time to adsorption equilibrium [1]: ≤ 5 min | effect on oral biofilm development ([2]; continuous perfusion, KSL at 10 μg/ml): partially effective in inhibiting biofilm formation | effect on oral biofilm development ([2]; continuous perfusion, KSL at 50 μg/ml): disrupted biofilm development | effect on oral biofilm development ([2]; pulsed treatment (30 min every 2 h, 50 μg/ml) starting 4 h after inoculation): inhibited biofilm formation | effect on oral biofilm development ([2]; pulsed treatment (30 min every 2 h, 50 μg/ml) starting 6 h after inoculation): failed to inhibit the development of biofilm structures
